Laboratory results from patent publication US10881599B2, “Whitening composition including novel kaempferol-based compound derived from post-fermented tea” (AMOREPACIFIC CORPORATION, priority 2017, dated 2021).

Tests used:
[1] = tested on: Mel-Ab cell line; test: Melanin production-inhibitory effect (Dooley's method); format: cell-based, C57BL/6; details: Mel-Ab cells, melanin after 5 days, absorbance at 400 nm
[2] = biological target: mushroom tyrosinase; test: Tyrosinase activity-inhibitory effect; format: biochemical; details: L-tyrosine, 20 minutes at 37° C., absorbance at 490 nm
Method: The tyrosinase activity-inhibitory effect of new material 33 was evaluated. Specifically, tyrosinase and tyrosine derived from mushrooms were obtained from Sigma Chemical. […] Tyrosinase activity was assessed by measuring the absorbance at 490 nm using a microplate reader (Bio-Rad 3550, Richmond, Calif., U.S.A.) after an enzyme reaction for 20 minutes at 37° C.

| Compound | Melanin production-inhibitory effect IC50 [1] | Tyrosinase activity-inhibitory effect IC50 [2] |
| --- | --- | --- |
| O=c1cc(CO)occ1O [Kojic acid, reference compound] | 39.36 ppm | – |
| OC[C@H]1O[C@@H](Oc2ccc(O)cc2)[C@H](O)[C@@H](O)[C@@H]1O [Arbutin, reference compound] | – | 149 ppm |
